Reference: patent US4325970A, “15-Acetyl-prostaglandins” (Hoffmann-La Roche Inc., priority 1980, dated 1982)

Tested on: gastric secretion
Test: gastric secretory depressant test in the unanesthetized rat with acute gastric fistula (acid concentration, acid output, pH)
Format: in vivo
Details: 10 μg/kg b.w. I.G.
Description: were tested as gastric secretory depressants in the unanesthesized rat with acute gastric fistula by the following procedure:
During this baseline period, the pH of the secretory flow was about 1.5 for each animal. Individual samples were collected at 10-minute intervals during this baseline period to monitor the pH. The compounds dissolved in polyethylene glycol-400 were administered intragastrically (I.G.) after this baseline period and samples were continuously collected for up to 180 minutes. The samples of gastric contents were subsequently assayed for volume, total acid concentration (μEq/ml) and total acid output for 10 minutes (μEq/10 minutes).
In addition to intragastric (I.G.) dosages, the activity of these compounds was tested for intraduodenal (I.D.) and intravenous administration (I.V.) to unanesthetized rats with acute gastric fistula as described above. For I.D. administration, the compounds were dissolved in polyethylene glycol-400. On the other hand, a trimethylolnitro-methane/ethanol solution was used for I.V. dosing. […] With this dose and route of administration of Compound A, a pronounced effect on pH was seen, an average increase of 3.1 pH units over 3 hours post administration. With the I.G. dose of Compound A of 5 μg/Kg b.w., an average increase of 1.6 pH units occurred. […] The antisecretory effect of Compound A seen after I.V. administration (10 μg/Kg b.w.) was low, amounting to about 1/4 to 1/5 that seen following I.G. dosage of Compound A. With the I.V. route of administration at this dose of Compound A (10 μg/Kg b.w.) effect on pH was minimal, 1/10 to 1/20 that seen after I.G. administration of an identical dose of Compound A.

[1] = 20 minutes after administration
[2] = 30 minutes after administration
[3] = 40 minutes after administration
[4] = 50 minutes after administration
[5] = 60 minutes after administration
[6] = 70 minutes after administration
[7] = 80 minutes after administration
[8] = 90 minutes after administration

CCCCC(C)(C)[C@H](O)/C=C/C1[C@H](C)CC(=O)[C@@H]1C/C=C\CCCC(=O)O (stereo in doubt) [Compound B, (8R,11R,12S,15R,5Z,13E)-15-hydroxy-11,16,16-trimethyl-9-oxoprosta-5,13-dien-1-oic acid, reference compound]
% Inhibition, acid concentration (S.E.M.) [1]: 62 (5) % | % Inhibition, acid output (S.E.M.) [1]: 69 (3) % | % Inhibition, acid concentration (S.E.M.) [2]: 67 (6) % | % Inhibition, acid output (S.E.M.) [2]: 72 (2) % | % Inhibition, acid concentration (S.E.M.) [3]: 58 (6) % | % Inhibition, acid output (S.E.M.) [3]: 68 (6) % | % Inhibition, acid concentration (S.E.M.) [4]: 59 (5) % | % Inhibition, acid output (S.E.M.) [4]: 73 (2) % | % Inhibition, acid concentration (S.E.M.) [5]: 43 (5) % | % Inhibition, acid output (S.E.M.) [5]: 78 (7) % | % Inhibition, acid concentration (S.E.M.) [6]: 45 (5) % | % Inhibition, acid output (S.E.M.) [6]: 71 (3) % | % Inhibition, acid concentration (S.E.M.) [7]: 44 (6) % | % Inhibition, acid output (S.E.M.) [7]: 77 (7) % | % Inhibition, acid concentration (S.E.M.) [8]: 25 (13) % | % Inhibition, acid output (S.E.M.) [8]: 57 (17) %
